From ChEMBL document CHEMBL5029158, “Design, structure-activity relationship study and biological evaluation of the thieno[3,2-c]isoquinoline scaffold as a potential anti-cancer agent” (Bioorg Med Chem Lett, 2021)
The source made the active and inactive calls. The rule behind the calls is not given here.

Tests used:
A549 [1] = experiment: Cytotoxicity against human A549 cells assessed as reduction in cell viability; type: functional, cell-based
HeLa = experiment: Cytotoxicity against human HeLa cells assessed as reduction in cell viability; type: functional, cell-based
HCT-116 = experiment: Cytotoxicity against human HCT-116 cells assessed as reduction in cell viability; type: functional, cell-based
MDA-MB-231 = experiment: Cytotoxicity against human MDA-MB-231 cells assessed as reduction in cell viability; type: functional, cell-based
HFF-1 = experiment: Cytotoxicity against human HFF-1 cells assessed as reduction in cell viability; type: cell-based
Fibroblast = experiment: Cytotoxicity against human fibroblasts assessed as reduction in cell viability; type: cell-based
[2] = Selectivity index, ratio of IC50 for cytotoxicity against human fibroblasts to IC50 for human A549 cells; type: toxicity, cell-based; conditions: human fibroblasts versus A549 cells, read-out: Selectivity Index
[3] = Selectivity index, ratio of IC50 for cytotoxicity against human fibroblasts to IC50 for human HeLa cells; type: toxicity, cell-based; conditions: human fibroblasts versus HeLa cells, read-out: Selectivity Index
[4] = Selectivity index, ratio of IC50 for cytotoxicity against human fibroblasts to IC50 for human HCT-116 cells; type: toxicity, cell-based; conditions: human fibroblasts versus HCT-116 cells, read-out: Selectivity Index
[5] = Selectivity index, ratio of IC50 for cytotoxicity against human fibroblasts to IC50 for human MDA-MB-231 cells; type: toxicity, cell-based; conditions: human fibroblasts versus MDA-MB-231 cells, read-out: Selectivity Index
A549 [6] = experiment: Induction of mitotic arrest in human A549 cells assessed as reduction in microtubule network with fragmented spindle poles at 0.50 uM measured after 8 hrs by DAPI/ACA staining based fluorescence microscopic analysis; type: functional, cell-based; conditions: dose 0.5 µM
A549 [7] = experiment: Antitumor activity against human A549 cell assessed as disrupted in spheroid morphology at 0.5 to 1 uM measured after 6 days; type: functional, cell-based; conditions: dose 0.5-1 µM, time 6.0 day
Tubulin (Homo sapiens) [8] = target: T1, Tubulin (Homo sapiens) (UniProt P68371+Q9H4B7+P0DPH7+P68366+Q13509+Q71U36+P04350+Q3ZCM7+P07437+P68363+Q9BQE3+Q6PEY2+Q13885+Q9BVA1+Q9BUF5); experiment: Inhibition of microtubule (unknown origin) polymerization at 0.6 uM; type: protein-complex assay
Tubulin (Homo sapiens) [9] = target: T1, Tubulin (Homo sapiens); experiment: Inhibition of microtubule (unknown origin) polymerization at 5 uM; type: protein-complex assay
A549 [10] = experiment: Potency index, ratio of […] for cytotoxicity against human A549 cells assessed as reduction in cell viability; type: functional
A549 [11] = experiment: Cytotoxicity against human A549 cells assessed as cell death measured after 2 to 3 days; type: functional, cell-based; conditions: time 2-3 day
Tubulin (Homo sapiens) [12] = target: T1, Tubulin (Homo sapiens); experiment: Inhibition of colchicine binding to tubulin (unknown origin) at 1 uM by fluorescence assay; type: protein-complex assay

| Structure (SMILES) | IC50 (A549 [1]) [nM] | Ratio IC50 (A549 [10]) | also measured |
| --- | --- | --- | --- |
| COc1ccc(S(=O)(=O)N2Cc3ccccc3-c3sc(Br)cc32)cc1 | 370 | 23.1 | IC50 (HeLa): 430 nM; IC50 (HCT-116): 430 nM; IC50 (MDA-MB-231): 260 nM; IC50 (HFF-1): 790 nM; IC50 (Fibroblast): 1400 nM; selectivity ratio [2]: 3.8; selectivity ratio [3]: 3.2; selectivity ratio [4]: 3.2; selectivity ratio [5]: 5.3; Activity (A549 [6]): inactive; Activity (A549 [7]): Active; inhibition (Tubulin (Homo sapiens) [8]): Active; inhibition (Tubulin (Homo sapiens) [9]): Active; Activity (A549 [11]): Active; inhibition (Tubulin (Homo sapiens) [12]): Active |
| O=S(=O)(c1ccc(C(F)(F)F)cc1)N1Cc2ccccc2-c2sccc21 | > 10000 | – | – |
| Cc1ccc(S(=O)(=O)N2Cc3ccccc3-c3sc(Br)cc32)cc1 | 2100 | 131.2 | – |
| COc1ccc(S(=O)(=O)N2Cc3ccccc3-c3sc(Cl)cc32)cc1 | 430 | 36.8 | – |
| Cc1cccc(S(=O)(=O)N2Cc3ccccc3-c3sc(Br)cc32)c1 | 2300 | 143.7 | – |
| COc1ccc(S(=O)(=O)N2Cc3ccccc3-c3sc(Cl)c(C)c32)cc1 | 550 | 34.3 | – |
| CC(C)(C)c1ccc(S(=O)(=O)N2Cc3ccccc3-c3sc(Br)cc32)cc1 | > 10000 | >625 | – |
| O=S(=O)(c1ccc(C(F)(F)F)cc1)N1Cc2ccccc2-c2sc(Br)cc21 | > 10000 | >625 | – |
| Cc1cccc(S(=O)(=O)N2Cc3ccccc3-c3sccc32)c1 | 6000 | – | – |
| O=S(=O)(c1ccccc1)N1Cc2ccccc2-c2sc(Br)cc21 | 1900 | 118.7 | – |
| Cc1ccc(S(=O)(=O)N2Cc3ccccc3-c3sccc32)cc1 | 3400 | – | – |
| O=S(=O)(c1ccccc1)N1Cc2ccccc2-c2sccc21 | 5200 | – | – |
| COC(=O)Nc1nc2cc(C(=O)c3cccs3)ccc2[nH]1 | – | – | inhibition (Tubulin (Homo sapiens) [12]): Active |
| CC(C)(C)c1ccc(S(=O)(=O)N2Cc3ccccc3-c3sccc32)cc1 | > 10000 | – | – |
| O=S(=O)(c1cccs1)N1Cc2ccccc2-c2sccc21 | > 10000 | – | – |
| CS(=O)(=O)N1Cc2ccccc2-c2sccc21 | > 10000 | – | – |
| COc1ccc(S(=O)(=O)N2Cc3ccccc3-c3scc(C)c32)cc1 | 630 | 39.3 | – |
| COc1cc2c(c(OC)c1OC)-c1ccc(OC)c(=O)cc1[C@@H](NC(C)=O)CC2 [COLCHICINE] | 16 | – | IC50 (HeLa): 10 nM; IC50 (HCT-116): 22 nM |
| COc1ccc(S(=O)(=O)N2Cc3ccccc3-c3sc(Br)c(C)c32)cc1 | 2800 | 175 | – |
| COc1ccc(S(=O)(=O)N2Cc3ccccc3-c3sc(I)cc32)cc1 | 780 | 48.7 | – |
| CC[C@]1(O)C[C@@H]2CN(CCc3c([nH]c4ccccc34)[C@@](C(=O)OC)(c3cc4c(cc3OC)N(C)[C@H]3[C@@](O)(C(=O)OC)[C@H](OC(C)=O)[C@]5(CC)C=CCN6CC[C@]43[C@@H]65)C2)C1 | – | – | inhibition (Tubulin (Homo sapiens) [12]): inactive |
| CS(=O)(=O)N1Cc2ccccc2-c2sc(Br)cc21 | > 10000 | >625 | – |
| COc1ccc(S(=O)(=O)N2Cc3ccccc3-c3sccc32)cc1 | 780 | – | – |
